Assay results: patent EP0166357A2, “Benzofused lactams and pharmaceutical compositions containing them” (Merck & Co., Inc., priority 1984, dated 1986)

Target: CCK receptor
Experiment: 125I-CCK-33 receptor binding assay
Details: tissue not stated for the values (methods given for rat pancreas and guinea pig brain cortex membranes); read-out: IC50, inhibition of specific 125I-CCK-33 binding
Experimental: CCK-33 was radiolabeled with […] (2000 Ci/mmole) as described by Sankara et al. [J. Biol. Chem. 254: 9349-9351, (1979)]. Receptor binding was performed according to Innis and Snyder [Proc. Natl. Acad. Sci. 77: 6917-6921, (1980)] with the minor modification of adding the additional protease inhibitors, phenylmethane sulfonyl fluoride and o-phenanthroline. The latter two compounds have no effect on the ^125I-CCK receptor binding assay.
Male Sprague-Dawley rats (200-350g) were sacrificed by decapitation. The whole pancreas was dissected free of fat tissue and was homogenized in 20 volumes of ice-cold 50 mM, Tris HC1 (pH 7.7 at 25°C) with a Brinkman Polytron PT 10. The homogenates were centrifuged at 48,000 g for 10 min. Pellets were resuspended in Tris Buffer, centrifuged as above and resuspended in 200 volumes of binding assay buffer (50 mM Tris HC1, pH 7.7 at 25°C, 5 mM dithiothriethel, 0.1 mM bacitracin, 1.2 mM phenylmethane sulfonyl fluoride and 0.5 mM o-phenanthroline). For the binding assay, 25 µl of buffer (for total binding) or unlabeled CCK-8 sulfate to give a final concentration of luM (for nonspecific binding) or the compounds of Formula 1 (for determination inhibition of 125I-CCR binding) and 25 µl of 125I-CCK-33 (30,000-40,000 cpm) were added to 450 µl of the membrane suspensions in microfuge tubes. All assays were run in duplicate or triplicate. The reaction mixtures were incubated at 37°C for 30 minutes and centrifuged in a Beckman Microfuge (4 minutes) immediately after adding 1 ml of ice-cold incubation buffer. The supernatant was aspirated and discarded, pellets were counted with a Beckman gamma 5000.
CCK-33 was radiolabeled with and the binding was performed according to the description for the pancreas method with modifications according to Saito, et al. (J. Neurochem, 37, 483-490 (1981)).
Hall Hartley guinea pigs (300-500 g) were sacrificed by decapitation and the brains were removed and placed in ice-cold 50 mM, Tris HC1 plus 7.58 g/1 Tritma-7.4 (pH 7.4 at 25°C) Cerebral cortex was dissected and used as a receptor source. Each gram of fresh guinea pig brain tissue was homogenized in 10 ml of Tris/Trizma buffer with a Brinkman polytron PT-10. The homogenates were centrifuged at 42,000 g for 15 minutes. Pellets were resuspended in Tris Buffer, centrifuged as above and resuspended in 200 volumes of binding assay buffer (10 mM HEPES, pH 7.7 at 25°C, 5 mM Mg C12, […], 0.4% BSA (bovine serum albumin) and 0.25 mg/ml bacitracin). For the binding assay, 25 µl of buffer (for total binding) or unlabeled CCK-8 sulfate to give a final concentration of 1µM (for nonspecific binding) or the compounds of Formula 1 (for determination inhibition of ^125I-CCK binding) and 25 µl of ^125I-CCK-33 (30,00-40,000 cpm) were added to 450 µl of the membrane suspensions in microfuge tubes. All assays were run in duplicate or triplicate. The reaction mixtures were incubated at 25°C for 2 hours and centrifuged in a Beckman Microfuge (4 minutes) immedidately after adding 1 ml of ice-cold incubation buffer. The supernatant was aspirated and discarded, pellets were counted with a Beckman gamma 5000.

Structure (SMILES)	IC50 [nM]
COC(=O)CN1C(=O)C(NCc2c[nH]c3ccccc23)CCc2ccccc21 (racemic) [l-Carbomethoxymethyl-3-(3-indolemethyl)amino homodihydrocarboxtyril]	15000
CCOC(=O)C(CCc1ccccc1)NC1CCc2ccccc2N(C)C1=O (single isomer, unassigned) [1-Methyl-3-(1-Carboethoxy-3-phenyl-1-propyl) aminohomodihydrocarbostyril]	60000
CC(=O)N[C@H](Cc1c[nH]c2ccccc12)C(=O)NC1CCc2ccccc2N(CC(=O)OC(C)(C)C)C1=O (single isomer, unassigned) [1-t-Butoxycarbonylmethyl-3-(D-N-acetyltryptophanyl)-aminohomodihydrocarbostyril]	1600
CC(C)(C)OC(=O)CN1C(=O)C(NC(=O)[C@H](Cc2c[nH]c3ccccc23)NC(=O)OCc2ccccc2)CCc2ccccc21 (single isomer, unassigned) [l-t-Butoxycarbonylmethyl-3(-L-N-carbobenzyloxytrypto- phanyl)aminohomodihydrocarbostyril]	1200
CC(=O)N[C@@H](Cc1c[nH]c2ccccc12)C(=O)NC1CCc2ccccc2N(CC(=O)OC(C)(C)C)C1=O (single isomer, unassigned) [l-t-Butoxycarbonylmethyl-3-(L-N-acetyltryptophanyl)-aminohomodihydrocarbostyril]	2800
